Results on four compounds are retold here after paper PMC3429931 (Biochemical Journal, 2012).

For assay [1], the target named is Dat (dopamine N-acetyltransferase), wild-type / full-length (Drosophila melanogaster, UniProt Q94521, Y220F). Description: Ellman's reagent. The following applies: read-out: Tryptamine Km; 30 °C, 50 mM sodium phosphate pH 7.2, 500 mM NaCl, 2 mM EDTA, 2 mM AcCoA. (In general: In Ellman's method for cholinesterases, released thiocholine reacts with DTNB.)
The target in assay [2] is T1, Dat (dopamine N-acetyltransferase), wild-type / full-length (Drosophila melanogaster, UniProt Q94521). Briefly: Ellman's reagent. To be noted: read-out: Tryptamine Km; 30 °C, 50 mM sodium phosphate pH 7.2, 500 mM NaCl, 2 mM EDTA, 2 mM AcCoA.
T1 sequence (Q94521 36-275): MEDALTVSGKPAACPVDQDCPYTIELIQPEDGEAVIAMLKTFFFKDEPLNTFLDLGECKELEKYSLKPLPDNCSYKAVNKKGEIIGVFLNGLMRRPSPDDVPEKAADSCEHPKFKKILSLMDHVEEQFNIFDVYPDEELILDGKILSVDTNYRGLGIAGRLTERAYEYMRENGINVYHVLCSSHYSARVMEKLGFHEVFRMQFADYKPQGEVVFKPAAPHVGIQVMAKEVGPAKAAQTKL
The target of assay [3] is Dat (dopamine N-acetyltransferase), wild-type / full-length (Drosophila melanogaster, UniProt Q94521, S221A). Briefly: Ellman's reagent. The following applies: read-out: Tryptamine Km; 30 °C, 50 mM sodium phosphate pH 7.2, 500 mM NaCl, 2 mM EDTA, 2 mM AcCoA.
Sequence of Dat (dopamine N-acetyltransferase), wild-type / full-length (Drosophila melanogaster, UniProt Q94521, S221A) (Q94521 36-275 S221A): as the sequence (Q94521 36-275) above, with S186A counted along it
In assay [4] the target is Dat (dopamine N-acetyltransferase), wild-type / full-length (Drosophila melanogaster, UniProt Q94521, Y220A). Description: Ellman's reagent. The following applies: read-out: Tryptamine Km; 30 °C, 50 mM sodium phosphate pH 7.2, 500 mM NaCl, 2 mM EDTA, 2 mM AcCoA.
Sequence of Dat (dopamine N-acetyltransferase), wild-type / full-length (Drosophila melanogaster, UniProt Q94521, Y220A) (Q94521 36-275 Y220A): as the sequence (Q94521 36-275) above, with Y185A counted along it
In assay [5] the target is Dat (dopamine N-acetyltransferase), wild-type / full-length (Drosophila melanogaster, UniProt Q94521, S217A). Description: Ellman's reagent. To be noted: read-out: Tryptamine Km; 30 °C, 50 mM sodium phosphate pH 7.2, 500 mM NaCl, 2 mM EDTA, 2 mM AcCoA.
Sequence of Dat (dopamine N-acetyltransferase), wild-type / full-length (Drosophila melanogaster, UniProt Q94521, S217A) (Q94521 36-275 S217A): as the sequence (Q94521 36-275) above, with S182A counted along it
The target of assay [6] is Dat (dopamine N-acetyltransferase), wild-type / full-length (Drosophila melanogaster, UniProt Q94521, E82A). Briefly: Ellman's reagent. To be noted: read-out: Tryptamine Km; 30 °C, 50 mM sodium phosphate pH 7.2, 500 mM NaCl, 2 mM EDTA, 2 mM AcCoA.
Sequence of Dat (dopamine N-acetyltransferase), wild-type / full-length (Drosophila melanogaster, UniProt Q94521, E82A) (Q94521 36-275 E82A): as the sequence (Q94521 36-275) above, with E47A counted along it
Assay [7] addresses T1, Dat (dopamine N-acetyltransferase), wild-type / full-length. Description: isothermal titration calorimetry. Format: binding. Background: In ITC the heat of successive injections is recorded.

What is called Km is the concentration of substrate that gives half-maximal velocity. As a reminder, the Kd is the concentration at which binding is half-saturated. Read a low Kd as a tighter complex.

Sequence of Dat (dopamine N-acetyltransferase), wild-type / full-length (Drosophila melanogaster, UniProt Q94521, Y220F) (Q94521 36-275 Y220F): as the sequence (Q94521 36-275) above, with Y185F counted along it

Regarding `NCCc1c[nH]c2ccccc12` [tryptamine], the Km in assay [1] was 470 ± 80 µM; in assay [2] it was 470 ± 90 µM; in assay [3] it was 550 ± 70 µM; in assay [4], 490 ± 70 µM; in assay [5], 650 ± 90 µM; in assay [6], 1200 ± 100 µM.

For `NCCc1c[nH]c2ccc(O)cc12` [serotonin], the Kd in assay [7] came to 223 µM.

Regarding `CC(=O)SCCNC(=O)CCNC(=O)[C@H](O)C(C)(C)COP(=O)(O)OP(=O)(O)OC[C@H]1O[C@@H](n2cnc3c(N)ncnc32)[C@H](O)[C@@H]1OP(=O)(O)O` [AcCoA], in assay [7], binding was characterised by a dissociation constant (Kd) of 5.43 ± 1.09 µM.

The compound `NCCc1ccc(O)c(O)c1` [dopamine] had a Kd in assay [7] of 25.9 ± 2.5 µM.
